# Measured values reported in paper PMC3724770 (ACS combinatorial science, 2012).
# pIC50: −log10 of the molar value.
# Biological target: T1, fms-like receptor tyrosine kinase-3 (FLT3) (Homo sapiens, UniProt P36888)
# T1 sequence (P36888 27-993): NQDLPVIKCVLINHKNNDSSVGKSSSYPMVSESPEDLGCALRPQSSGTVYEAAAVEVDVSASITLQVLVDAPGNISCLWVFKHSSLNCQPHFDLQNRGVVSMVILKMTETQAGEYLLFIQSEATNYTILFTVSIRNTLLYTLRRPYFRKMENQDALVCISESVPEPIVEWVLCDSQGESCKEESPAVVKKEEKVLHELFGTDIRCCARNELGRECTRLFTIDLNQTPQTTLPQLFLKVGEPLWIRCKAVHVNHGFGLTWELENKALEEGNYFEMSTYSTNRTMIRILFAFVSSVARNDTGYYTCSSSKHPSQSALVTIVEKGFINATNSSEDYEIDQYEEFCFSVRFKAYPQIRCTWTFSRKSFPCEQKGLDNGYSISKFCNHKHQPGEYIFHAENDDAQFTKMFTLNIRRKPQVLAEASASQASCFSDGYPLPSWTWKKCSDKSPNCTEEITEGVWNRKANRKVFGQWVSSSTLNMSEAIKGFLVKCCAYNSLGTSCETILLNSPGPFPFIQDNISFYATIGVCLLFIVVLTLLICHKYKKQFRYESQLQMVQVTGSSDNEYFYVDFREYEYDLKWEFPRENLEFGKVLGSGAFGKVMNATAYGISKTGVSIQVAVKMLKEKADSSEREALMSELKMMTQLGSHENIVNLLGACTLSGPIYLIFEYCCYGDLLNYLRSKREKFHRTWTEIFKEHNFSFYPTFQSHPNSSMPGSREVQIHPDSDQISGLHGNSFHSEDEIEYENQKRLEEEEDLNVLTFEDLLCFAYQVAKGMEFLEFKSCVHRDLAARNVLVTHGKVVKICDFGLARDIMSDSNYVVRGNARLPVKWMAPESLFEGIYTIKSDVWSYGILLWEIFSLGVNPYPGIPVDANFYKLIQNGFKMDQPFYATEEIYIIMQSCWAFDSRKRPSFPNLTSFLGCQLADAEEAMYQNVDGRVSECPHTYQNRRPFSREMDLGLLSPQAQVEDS
# Type: biochemical
structure (smiles),measurement,value
"CCCCNc1ncnc2c(N3CCNCC3)c[nH]c12 [compound 9, N-butyl-7-(piperazin-1-yl)-5H-pyrrolo[3,2-d]pyrimidin-4-amine]",pIC50,5.72
